These results are taken from patent US11530213B2, “Naphthyridinone derivatives and their use in the treatment of arrhythmia” (NOVARTIS AG, priority 2016, dated 2022).

SMILES strings stand for the structures.

GIRK1/4, sequence (P48549 whole entry): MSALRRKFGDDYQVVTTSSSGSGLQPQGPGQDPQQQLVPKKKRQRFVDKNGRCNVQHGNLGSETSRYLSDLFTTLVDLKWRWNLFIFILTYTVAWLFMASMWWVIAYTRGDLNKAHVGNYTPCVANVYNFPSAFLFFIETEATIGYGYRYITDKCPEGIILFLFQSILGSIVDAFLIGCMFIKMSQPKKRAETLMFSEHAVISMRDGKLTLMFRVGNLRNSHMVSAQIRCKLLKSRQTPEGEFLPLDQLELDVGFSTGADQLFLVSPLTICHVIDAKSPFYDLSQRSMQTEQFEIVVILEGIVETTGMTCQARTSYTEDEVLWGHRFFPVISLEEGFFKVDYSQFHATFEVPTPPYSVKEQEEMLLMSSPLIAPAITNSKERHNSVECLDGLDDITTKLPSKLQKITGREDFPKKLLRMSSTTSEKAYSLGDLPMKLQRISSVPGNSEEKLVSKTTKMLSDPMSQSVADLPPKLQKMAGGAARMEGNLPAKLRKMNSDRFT
GIRK1/4, sequence (P48544 whole entry): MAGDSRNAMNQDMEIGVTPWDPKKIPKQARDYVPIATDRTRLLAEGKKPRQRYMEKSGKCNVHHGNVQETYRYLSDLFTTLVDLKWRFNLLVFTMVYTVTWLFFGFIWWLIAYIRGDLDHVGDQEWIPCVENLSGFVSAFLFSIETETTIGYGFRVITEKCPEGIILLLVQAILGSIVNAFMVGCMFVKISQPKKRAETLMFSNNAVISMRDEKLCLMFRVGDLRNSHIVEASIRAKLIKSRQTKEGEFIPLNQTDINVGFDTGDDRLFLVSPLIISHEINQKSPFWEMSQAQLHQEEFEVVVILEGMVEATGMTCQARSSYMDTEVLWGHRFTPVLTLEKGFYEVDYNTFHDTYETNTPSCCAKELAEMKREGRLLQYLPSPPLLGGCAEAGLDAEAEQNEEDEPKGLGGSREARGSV

The assay has as its target GIRK1/4 (Homo sapiens (Human), UniProt P48544+P48549). In words: GIRK1/4 inhibition, Quattro (IonWorks) population patch clamp, inward potassium current in GIRK 1/4 HEK293 stable cells (test assay No. 1). The format is cell-based. To be noted: percentage of current inhibition normalized to DMSO-only control. How it is done: The activity of a compound according to the present invention can be assessed by the following in vitro method. • 1. Buffers: • a. External buffer: 10 mM NaCl, 50 mM Na Gluconate, 80 mM K Gluconate, 1.8 mM CaCl2, 1 mM MgCl2, 10 mM HEPES, 10 mM Glucose, pH 7.4; osmolality […]. • b. Internal buffer: 30 mM KCl, 100 mM K Gluconate, 1 mM MgCl2, 10 mM HEPES, 1 mM EGTA, 10 mM NaCl, pH 7.2; osmolality […]. • 2. Compounds: • a. Prepare seven-fold compound dilution series (10 mM to 20 uM) in 100% DMSO, in 384-well polypropylene plates. • b. Propafenone (Sigma Aldrich, catalog number P4670) is used as a positive control and DMSO for neutral control • c. Resuspend 1 ul of compounds in DMSO into 65.7 ul external buffer in 384-well polypropylene plate and load into Plate 1 section of Molecular Devices Quattro • 3. Quattro setup: • a. Load 384-well Population Patch Plate (Molecular Devices #9000-0902) into Quattro • b. Fill Quattro F-soak trough with 20% DMSO and 50% EtOH • c. Fill Quattro buffer trough with external buffer • d. Attach internal buffer flask to Quattro internal buffer tubing • e. Attach PBS (Phosphate Buffered Saline, minus Ca^++ and Mg^++, pH7.4) bottle to F-head & E-head wash on Quattro • 4. Antibiotic: • a. Resuspend 5.6 mg amphotericin B (Sigma Aldrich, catalog number A2411) in 175 ul DMSO • b. Add the resulting solution to 50 ml internal buffer, mix and attach to antibiotic tubing port on Quattro • 5. Cells: • a. Use GIRK 1/4 HEK293 stable cells (obtained from ChanTest, 14656 Neo Parkway, Cleveland, Ohio 44128) grown to […] confluency in the following cell culture medium: DMEM containing 10% (v/v) Fetal Bovine Serum, Penicillin/Streptomycin (at “1×” concentration from a 100× stock), 0.5 mg/ml G418 and 0.1 mg/ml Zeocin. • b. Wash cells with PBS (minus Ca^++ and Mg^++), Detach cells using Detachin (Genlantis, 11011 Torreyana, San Diego, Calif. 92121), and resuspend in external buffer (5 ml final volume at 2.0-2.1×10^6 cells/ml) • c. Load into cell trough of Quattro • 6. Assay Protocol: • Quattro is controlled using IonWorks v2 software to perform the following steps: • a. Add 3.5 ul cells plus 3.5 ul external buffer to wells of Quattro Patch Plate • b. Circulate amphotericin B and internal buffer onto cells • c. Apply the following voltage protocol: Pulse 1: 15 mV for 300 milliseconds (ms), followed by Pulse 2: −120 mV for 400 ms, then Pulse 3: −15 mV for 400 ms, and finally Pulse 4: −120 mV to 40 mV over 500 ms (this is a voltage ramp). • d. Measure magnitude of inward potassium current at time point between 1200-1220 ms from start of Pulse 1 (i.e. during the voltage ramp phase). • e. Add 3.5 ul of diluted compounds (or DMSO) to wells and repeat steps c-d (final compound concentrations are 50 uM to 0.1 uM, for potent compounds 0.5 uM to 0.01 uM and each concentration is tested in quadruplicate—i.e. in 4 separate wells). • f. The difference between current magnitude pre vs. post-compound gives a measure of GIRK1/4 inhibition. • 7. Data analysis:
IC50 values are calculated by plotting the percentage of current inhibition (normalized to the DMSO-only control) as a function of compound concentration using standard data analysis software.
For orientation: In patch-clamp work, channel activity is measured electrically.
`O=c1cc(CO)n(-c2c(Cl)cccc2Cl)c2c(Cl)cnc(OCC3(CO)COC3)c12` [Example 5, 8-chloro-1-(2,6-dichlorophenyl)-2-(hydroxymethyl)-5-((3-(hydroxymethyl)oxetan-3-yl)methoxy)-1,6-naphthyridin-4(1H)-one] yielded an IC50 of 235 nM.

The compound `O=c1cc(CO)n(-c2c(Cl)cccc2Cl)c2c(Cl)cnc(OCCO)c12` [Example 12, 8-chloro-1-(2,6-dichlorophenyl)-5-(2-hydroxyethoxy)-2-(hydroxymethyl)-1,6-naphthyridin-4(1H)-one] had an IC50 of 36 nM. Compound `Cc1cc(=O)c2c(-n3cncn3)ncc(Cl)c2n1-c1c(Cl)cccc1Cl` [Example 71, 8-Chloro-1-(2,6-dichlorophenyl)-2-methyl-5-(1H-1,2,4-triazol-1-yl)-1,6-naphthyridin-4(1H)-one] displayed an IC50 of 176 nM. Regarding `Cc1cc(=O)c2c(N3C[C@@H](O)[C@@H](O)C3)ncc(Cl)c2n1-c1c(Cl)cccc1Cl` [Example 33, 8-chloro-1-(2,6-dichlorophenyl)-5-((3R,4S)-3,4-dihydroxypyrrolidin-1-yl)-2-methyl-1,6-naphthyridin-4(1H)-one], the half-inhibitory concentration (IC50) was determined as 100 nM. Regarding `O=c1cc(CO)n(-c2c(Cl)cccc2Cl)c2c(Cl)cnc(CCC(O)CO)c12` (single isomer, unassigned) [Example 76, 8-chloro-1-(2,6-dichlorophenyl)-5-(3,4-dihydroxybutyl)-2-(hydroxymethyl)-1,6-naphthyridin-4(1H)-one], half-maximal inhibition (IC50) was put at 355 nM. Regarding `O=c1cc(CO)n(-c2c(Cl)cccc2Cl)c2c(Cl)cnc(OC[C@H](O)CO)c12` [Example 2, (R)-8-chloro-1-(2,6-dichlorophenyl)-5-(2,3-dihydroxypropoxy)-2-(hydroxymethyl)-1,6-naphthyridin-4(1H)-one], 159 nM corresponded to half-maximal inhibition (IC50).

With `O=c1cc(CO)n(-c2c(Cl)cccc2Cl)c2c(Cl)cnc(C(O)CO)c12` (single isomer, unassigned) [Example 84, 8-Chloro-1-(2,6-dichlorophenyl)-5-(1,2-dihydroxyethyl)-2-(hydroxymethyl)-1,6-naphthyridin-4(1H)-one], it took 116 nM to reach half-maximal inhibition (IC50). The value for `O=c1cc(CO)n(-c2c(Cl)cccc2Cl)c2c(Cl)cnc(OCCOCCOCCOCCO)c12` [Example 7, 8-chloro-1-(2,6-dichlorophenyl)-5-(2-(2-(2-(2-hydroxyethoxy)ethoxy)ethoxy)ethoxy)-2-(hydroxymethyl)-1,6-naphthyridin-4(1H)-one] was 431 nM; that for `Cc1cc(=O)c2c(-c3cnn(C)c3)cncc2n1-c1c(Cl)cc(C#N)cc1Cl` [Example 73, 3,5-Dichloro-4-(2-methyl-5-(1-methyl-1H-pyrazol-4-yl)-4-oxo-1,7-naphthyridin-1(4H)-yl)benzonitrile] was 329 nM; that for `Cc1cc(=O)c2c(OCC(C)(CO)CO)ncc(Cl)c2n1-c1c(Cl)cccc1Cl` [Example 41, 8-chloro-1-(2,6-dichlorophenyl)-5-(3-hydroxy-2-(hydroxymethyl)-2-methylpropoxy)-2-methyl-1,6-naphthyridin-4(1H)-one] was 28 nM. Then `O=c1cc(CO)n(-c2c(Cl)cc(F)cc2Cl)c2c(Cl)cnc(OCC(O)CO)c12` (stereo not shown) [Example 60, 8-Chloro-1-(2,6-dichloro-4-fluorophenyl)-5-(2,3-dihydroxypropoxy)-2-(hydroxymethyl)-1,6-naphthyridin-4(1H)-one], with 261 nM; and `CCc1cnc(OCC(O)CO)c2c(=O)cc(C)n(-c3c(Cl)cccc3Cl)c12` (stereo not shown) [Example 69, 1-(2,6-Dichlorophenyl)-5-(2,3-dihydroxpropoxy)-8-ethyl-2-methyl-1,6-naphthyridin-4(1H)-one], with 115 nM; and `Cc1cc(=O)c2c(NCCOCCOCCOCCO)ncc(Cl)c2n1-c1c(Cl)cccc1C#N` [Example 16, 3-chloro-2-(8-chloro-5-((2-(2-(2-(2-hydroxyethoxy)ethoxy)ethoxy)ethyl)amino)-2-methyl-4-oxo-1,6-naphthyridin-1(4H)-yl)benzonitrile], with 176 nM. For the compound `Cc1cc(=O)c2c(OCCOCCOCCOCCOCCOCCO)ncc(Cl)c2n1-c1c(Cl)cccc1Cl` [Example 19, 8-chloro-1-(2,6-dichlorophenyl)-5-((17-hydroxy-3,6,9,12,15-pentaoxaheptadecyl)oxy)-2-methyl-1,6-naphthyridin-4(1H)-one], the half-inhibitory concentration (IC50) came to 98 nM. Consider `Cc1cc(=O)c2c(OCC(O)CO)cncc2n1-c1c(Cl)cc(C#N)cc1Cl` (stereo not shown) [Example 18, 3,5-dichloro-4-(5-(2,3-dihydroxypropoxy)-2-methyl-4-oxo-1,7-naphthyridin-1(4H)-yl)benzonitrile], for which the IC50 came out at 1860 nM. The compound `Cc1cc(=O)c2c(C(=O)CO)ncc(Cl)c2n1-c1c(Cl)cccc1Cl` [Example 86, 8-Chloro-1-(2,6-dichlorophenyl)-5-(2-hydroxyacetyl)-2-methyl-1,6-naphthyridin-4(1H)-one] registered an IC50 of 37 nM. Compound `Cc1cc(=O)c2c(N3CC(O)C3)cncc2n1-c1c(Cl)cc(C#N)cc1Cl` [Example 29, 3,5-dichloro-4-(5-(3-hydroxyazetidin-1-yl)-2-methyl-4-oxo-1,7-naphthyridin-1(4H)-yl)benzonitrile] had an IC50 of 505 nM.

Turning to `Cc1cc(=O)c2c(OCC(O)C(C)(C)O)ncc(Cl)c2n1-c1c(Cl)cccc1Cl` (stereo not shown) [Example 40, 8-chloro-1-(2,6-chlorophenyl)-5-(2,3-dihydroxy-3-methylbutoxy)-2-methyl-1,6-naphthyridin-4(1H)-one], the half-maximal inhibitory concentration (IC50) was determined as 13 nM.

`Cc1cc(=O)c2c(OCCO)ncc(Cl)c2n1-c1c(Cl)cc(C#CCN2CCS(=O)(=O)CC2)cc1Cl` [Example 92, 8-Chloro-1-(2,6-dichloro-4-(3-(1,1-dioxidothiomorpholino)prop-1-yn-1-yl)phenyl)-5-(2-hydroxyethoxy)-2-methyl-1,6-naphthyridin-4(1H)-one] came in with an IC50 of 47 nM.

The compound `Cc1cc(=O)c2c(Oc3nnnn3C)ncc(Cl)c2n1-c1c(Cl)cccc1Cl` [Example 46, 8-chloro-1-(2,6-dichlorophenyl)-2-methyl-5-((1-methyl-1H-tetrazol-5-yl)oxy)-1,6-naphthyridin-4(1H)-one] yielded an IC50 of 128 nM. The value for `O=c1cc(CO)n(-c2c(Cl)cccc2Cl)c2c(Cl)cnc(CCC(O)CO)c12` (single isomer, unassigned) [Example 77, 8-chloro-1-(2,6-dichlorophenyl)-5-(3,4-dihydroxybutyl)-2-(hydroxymethyl)-1,6-naphthyridin-4(1H)-one] was 366 nM. Then `N#Cc1cccc(Cl)c1-n1c(C2CC2)cc(=O)c2c(OCC(O)CO)ncc(Cl)c21` (stereo not shown) [Example 55, 3-chloro-2-(8-chloro-2-cyclopropyl-5-(2,3-dihydroxypropoxy)-4-oxo-1,6-naphthyridin-1(4H)-yl)benzonitrile], with 54 nM; and `Cc1cc(=O)c2c(Nc3nnnn3C)ncc(Cl)c2n1-c1c(Cl)cccc1Cl` [Example 45, 8-chloro-1-(2,6-dichlorophenyl)-2-methyl-5-((1-methyl-1H-tetrazol-5-yl)amino)-1,6-naphthyridin-4(1H)-one], with 149 nM. `O=c1cc(CO)n(-c2c(Cl)cccc2Cl)c2c(Cl)cnc(NCCOCCOCCOCCO)c12` [Example 13, 8-chloro-1-(2,6-dichlorophenyl)-5-((2-(2-(2-(2-hydroxyethoxy)ethoxy)ethoxy)ethyl)amino)-2-(hydroxymethyl)-1,6-naphthyridin-4(1H)-one] came in with a 50% inhibitory concentration (IC50) of 71 nM. Then `Cc1cc(=O)c2c(NC[C@H](O)CO)ncc(Cl)c2n1-c1c(Cl)cccc1Cl` [Example 39, (S)-8-chloro-1-(2,6-dichlorophenyl)-5-((2,3-dihydroxypropyl)amino)-2-methyl-1,6-naphthyridin-4(1H)-one], with 15 nM.

In general, IC50 refers to the point on the concentration scale where inhibition reaches its midpoint. A low value points to greater potency.
